{
  "source": "patent US8664233B2",
  "about": "“Substituted 5H-pyrimido[5,4-B]indoles, method for the production thereof and use thereof for treating non-solid malignant tumors of the blood-producing system” (The Medicines Company (Leipzig) GmbH, priority 2006, dated 2014)",
  "key": {"B-CLL cells [1]": {"test_system": "B-CLL cells", "assay": "formazane reduction assay (MMT test), cytotoxicity after 24 h incubation of the patient's blood", "type": "cell-based, human", "description": "Compounds according to the invention were tested as inductors of a cytotoxic reaction, i.e. triggering of apoptosis, in the case of chronic lymphatic leukemia (B-CLL).\nFludarabine, which is used in B-CLL as a standard chemotherapeutic agent, was employed as a positive control. A cytotoxicity up to a maximum of 60% was achievable under equal test conditions.\nThe cytotoxicity of the B-CLL cells was determined by means of a commercially available formazane reduction assay (MMT test) after 24 h of incubation of the patient's blood with the active substances."}, "B-CLL cells [2]": {"test_system": "B-CLL cells", "assay": "cytotoxicity / vitality of purified primary B-CLL cells (CellTiter-Glo ATP assay, resazurine vitality test), 72 h", "type": "cell-based", "details": "Homo sapiens; leukemic B lymphocytes of a B-CLL patient with an 11q deletion (FIG. 1)", "text": "In order to check the selective effect of various substances as to the vitality of human cells, isolated B cells from patients suffering from chronic B cell leukemia (B-CLL) and also purified […] (PBMC) and erythrocytes from healthy donors were investigated. The permanent human EHEB B-CLL cell line was selected as a model system for the chronic lymphatic B cell leukemia. It is known in the literature that as compared to primary B-CLL cells the EHEB cells respond in a much more insensitive fashion to proapoptotic signals. The cells were incubated with concentration series of the test substances for 3 days and the vitality of the cells was determined by means of CellTiter-Glo™ ATP assay (Promega, catalog number G7571) according to the manufacturer's instructions after this period.\nPrimary tumor cells are isolated from whole blood by means of density gradient centrifugation. To this end, the patient's whole blood is incubated with 50.0 μl human B cell enrichment cocktail (RosetteSep; Stem Cell Technology, Cat #15064) per milliliter whole blood at room temperature (RT) for 20 min. […] Having determined the cell number by means of trypan blue staining (trypan blue solution of Sigma-Aldrich, catalog no. T-8154) the desired number of test plates can be prepared. […]"}, "caspases 3, 7 and 9": {"test_system": "caspases 3, 7 and 9", "assay": "caspase-Glo 3/7 and caspase-Glo 9 assays in EHEB cells", "type": "cell-based, human", "details": "4.5 and 24 hours (FIG. 2)", "description": "In order to determine the specific induction of programmed cell death (apoptosis), a detection thereof was carried out by means of caspase-3/7 activity; the caspase-3/7 activity is described in the literature as a safe detection of apoptosis.\nThe EHEB cells were prepared as described above and incubated with three concentration dilutions, each in triple determination, for 4.5 and 24 hours. Thus, substance final concentrations were selected from 50.0, 10.0 and 2.00 μM for the 4 hour batches as well as 10.0, 1.00 and 0.50 μM for the 24 hour batches. In this connection, staurosporine in a final concentration of 2.00 μM (4 hour batches) and 0.50 μM (24 hour batches) acted as the positive control. In order to detect the caspase-3/7 activity, the caspase-Glo 3/7 and caspase-Glo 9 assays of Promega company were used; in this connection, the enzyme activity was determined by means of a luminescence signal which was recorded with the FluostarOPTIMA measurement device (BMG Labtechnologies).\nThe results were evaluated by a comparison between the relative luminescence intensity of the test substances and the positive control (staurosporine=100%) by means of the Excel program. The relative intensities for the substances according to the invention are up to 100% with an inhibitor concentration between 1 and 50 μM. […]"}, "B-CLL cells [3]": {"test_system": "B-CLL cells", "assay": "synergistic effect with fludarabine on induction of apoptosis in purified B-CLL cells", "type": "cell-based, human", "text": "As shown, a combination of an exemplary substance according to the invention with fludarabine already yields a total toxicity of the B-CLL cells of over 80% with a 10% toxic concentration of each partner. In the case of an additive effect of both substances, only about 20% toxicity could be expected. If the concentration of both substances is increased such that each substance kills 20% of the cells in a separate test, a toxicity of almost 100% is obtained in this synergy experiment."}},
  "note": "Read-outs that look alike come from different tables or passages of the source.",
  "data": [
    {"compound": "CCOc1nc(N2CCNCC2)c2[nH]c3cc(-c4ccncc4)ccc3c2n1", "note": "[2-ethoxy-4-(piperazin-1-yl)-7-(pyridin-4-yl)-5H-pyrimido[5,4-b]indole]", "values": [
      {"measurement": "cytotoxicity (apoptosis) of the leukemia cells, maximum reached", "setting": "B-CLL cells [1]", "value": "up to 100%"}
    ]},
    {"compound": "OCCOc1nc(N2CCNCC2)nc2c1[nH]c1cc(-c3ccncc3)ccc12", "note": "[2-{2-(piperazin-1-yl)-7-(pyridin-4-yl)-5H-pyrimido[5,4-b]indol-4-yloxy}ethanol]", "values": [
      {"measurement": "cytotoxicity (apoptosis) of the leukemia cells, maximum reached", "setting": "B-CLL cells [1]", "value": "up to 100%"}
    ]},
    {"compound": "CCOc1nc(N2CCNCC2)nc2c1[nH]c1cc(-c3cccc(C(=O)O)c3)ccc12.Cl", "note": "[3-(4-ethoxy-2-(piperazin-1-yl)-5H-pyrimido[5,4-b]indol-7-yl)benzoic acid hydrochloride]", "values": [
      {"measurement": "cytotoxicity (apoptosis) of the leukemia cells, maximum reached", "setting": "B-CLL cells [1]", "value": "up to 100%"}
    ]},
    {"compound": "CCOc1nc(N2CCNCC2)nc2c1[nH]c1cc(-c3cccc(C(=O)OC)c3)ccc12", "note": "[3-(4-ethoxy-2-(piperazin-1-yl)-5H-pyrimido[5,4-b]indol-7-yl)benzoic acid methyl ester]", "values": [
      {"measurement": "cytotoxicity (apoptosis) of the leukemia cells, maximum reached", "setting": "B-CLL cells [1]", "value": "up to 100%"}
    ]},
    {"compound": "CCOC(=O)c1ccc(-c2ccc3c(c2)[nH]c2c(OCC)nc(N4CCNCC4)nc23)cc1", "note": "[4-(4-ethoxy-2-(piperazin-1-yl)-5H-pyrimido[5,4-b]indol-7-yl)benzoic acid ethyl ester]", "values": [
      {"measurement": "cytotoxicity (apoptosis) of the leukemia cells, maximum reached", "setting": "B-CLL cells [1]", "value": "up to 100%"}
    ]},
    {"compound": "CCOc1nc(N2CCNCC2)nc2c1[nH]c1cc(-c3ccc(C(=O)O)cc3)ccc12.Cl", "note": "[4-(4-ethoxy-2-(piperazin-1-yl)-5H-pyrimido[5,4-b]indol-7-yl)benzoic acid hydrochloride]", "values": [
      {"measurement": "cytotoxicity (apoptosis) of the leukemia cells, maximum reached", "setting": "B-CLL cells [1]", "value": "up to 100%"}
    ]},
    {"compound": "CCOc1nc(N2CCNCC2)nc2c1[nH]c1cc(-c3ccc(O)cc3)ccc12.Cl", "note": "[4-(4-ethoxy-2-(piperazin-1-yl)-5H-pyrimido[5,4-b]indol-7-yl)phenol-hydrochloride]", "values": [
      {"measurement": "cytotoxicity (apoptosis) of the leukemia cells, maximum reached", "setting": "B-CLL cells [1]", "value": "up to 100%"}
    ]},
    {"compound": "CCOc1nc(N2CCN(C)CC2)nc2c1[nH]c1cc(-c3ccncc3)ccc12", "note": "[4-ethoxy-2-(4-methylpiperazin-1-yl)-7-(pyridin-4-yl)-5H-pyrimido[5,4-b]indole]", "values": [
      {"measurement": "cytotoxicity (apoptosis) of the leukemia cells, maximum reached", "setting": "B-CLL cells [1]", "value": "up to 100%"}
    ]},
    {"compound": "CCOc1nc(N2CCNCC2)nc2c1[nH]c1cc(-c3ccc(N)nc3)ccc12", "note": "[4-ethoxy-2-(piperazin-1-yl)-7-(2-aminopyridin-5-yl)-5H-pyrimido[5,4-b]indole]", "values": [
      {"measurement": "cytotoxicity (apoptosis) of the leukemia cells, maximum reached", "setting": "B-CLL cells [1]", "value": "up to 100%"}
    ]},
    {"compound": "CCOc1nc(N2CCNCC2)nc2c1[nH]c1cc(-c3ccc(OC)c(OC)c3)ccc12", "note": "[4-ethoxy-2-(piperazin-1-yl)-7-(3,4-dimethoxy-phenyl)-5H-pyrimido[5,4-b]indole]", "values": [
      {"measurement": "cytotoxicity (apoptosis) of the leukemia cells, maximum reached", "setting": "B-CLL cells [1]", "value": "up to 100%"}
    ]},
    {"compound": "CCOc1nc(N2CCNCC2)nc2c1[nH]c1cc(-c3cccnc3)ccc12", "note": "[4-ethoxy-2-(piperazin-1-yl)-7-(pyridin-3-yl)-5H-pyrimido[5,4-b]indole]", "values": [
      {"measurement": "cytotoxicity (apoptosis) of the leukemia cells, maximum reached", "setting": "B-CLL cells [1]", "value": "up to 100%"}
    ]},
    {"compound": "CCOc1nc(N2CCNCC2)nc2c1[nH]c1cc(-c3ccncc3)ccc12", "note": "[4-ethoxy-2-(piperazin-1-yl)-7-(pyridin-4-yl)-5H-pyrimido[5,4-b]indole]", "values": [
      {"measurement": "IC50", "setting": "B-CLL cells [2]", "value": 80, "unit": "nM"},
      {"measurement": "cytotoxicity (apoptosis) of the leukemia cells, maximum reached", "setting": "B-CLL cells [1]", "value": "up to 100%"},
      {"measurement": "activation of caspases 3, 7 and 9", "setting": "caspases 3, 7 and 9", "value": "activating caspases 3, 7, and 9"},
      {"measurement": "total toxicity of the B-CLL cells", "setting": "B-CLL cells [3]; combination with fludarabine, 10% toxic concentration of each partner", "value": "over 80%"},
      {"measurement": "toxicity of the B-CLL cells", "setting": "B-CLL cells [3]; combination with fludarabine, each substance kills 20% of the cells in a separate test", "value": "~100", "unit": "%"},
      {"measurement": "effect of combination with fludarabine on the induction of apoptosis", "setting": "B-CLL cells [3]; purified B-CLL cells (FIG. 4)", "value": "synergistic effect"}
    ]},
    {"compound": "CCOc1nc(N2CCNCC2)nc2c1[nH]c1ccc(-c3ccncc3)cc12", "note": "[4-ethoxy-2-(piperazin-1-yl)-8-(pyridin-4-yl)-5H-pyrimido[5,4-b]indole]", "values": [
      {"measurement": "cytotoxicity (apoptosis) of the leukemia cells, maximum reached", "setting": "B-CLL cells [1]", "value": "up to 100%"}
    ]},
    {"compound": "CCOc1nc(N2CCNCC2)nc2c1[nH]c1cc(N3CCOCC3)ccc12", "note": "[4-ethoxy-7-morpholino-2-(piperazin-1-yl)-5H-pyrimido[5,4-b]indole]", "values": [
      {"measurement": "cytotoxicity (apoptosis) of the leukemia cells, maximum reached", "setting": "B-CLL cells [1]", "value": "up to 100%"}
    ]},
    {"compound": "CCOc1nc(N2CCNCC2)nc2c1[nH]c1cc(-c3ccncc3)cc(OC)c12", "note": "[4-ethoxy-9-methoxy-2-(piperazin-1-yl)-7-(pyridin-4-yl)-5H-pyrimido[5,4-b]indole]", "values": [
      {"measurement": "cytotoxicity (apoptosis) of the leukemia cells, maximum reached", "setting": "B-CLL cells [1]", "value": "up to 100%"}
    ]},
    {"compound": "CCOc1nc(N2CCNCC2)nc2c1[nH]c1cc(-c3ccccc3N)cc(OC)c12", "note": "[Example 1, 2-(4-ethoxy-9-methoxy-2-(piperazin-1-yl)-5H-pyrimido[5,4-b]indol-7-yl)benzene amine]", "values": [
      {"measurement": "cytotoxicity (apoptosis) of the leukemia cells, maximum reached", "setting": "B-CLL cells [1]", "value": "up to 100%"}
    ]},
    {"compound": "CCOc1nc(N2CCNCC2)nc2c1[nH]c1c(-c3ccncc3)cccc12", "note": "[Example 8, 4-ethoxy-2-(piperazin-1-yl)-6-(pyridin-4-yl)-5H-pyrimido[5,4,-b]indole]", "values": [
      {"measurement": "cytotoxicity (apoptosis) of the leukemia cells, maximum reached", "setting": "B-CLL cells [1]", "value": "up to 100%"}
    ]},
    {"compound": "Nc1nc(F)nc2c1ncn2[C@@H]1O[C@H](CO)[C@@H](O)[C@@H]1O", "note": "[Fludarabine, fludarabine, reference compound]", "values": [
      {"measurement": "cytotoxicity (apoptosis) of the leukemia cells, maximum reached", "setting": "B-CLL cells [1]; ex vivo, blood of B-CLL patients, 24 h incubation", "value": "≤ 60", "unit": "%"}
    ]}
  ]
}
